# Source: patent US11279733B2, “Peptide antibiotics” (priority 2017, dated 2022)
# Where two headings read alike, the source gives them in different places. Positions of bridges follow the written chain, without caps; N, C: chain ends. Non-standard residues stand in square brackets, D forms with d. Residues, ends and D or L forms follow the SMILES beside them. *: point of attachment. Decanoyl(3R-OH) = CCCCCCC[C@@H](O)CC(=O)*; dBip = N[C@H](Cc1ccc(-c2ccccc2)cc1)C(=O)O; d3Pal = N[C@H](Cc1cccnc1)C(=O)O; dDab = NCC[C@@H](N)C(=O)O; Dab = NCC[C@H](N)C(=O)O; Dap = NC[C@H](N)C(=O)O
# Tests used:
# A. baumannii ATCC 19606 = settings: ATCC 19606
# Method in brief: (§1)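 Mid-log cultures grown in Mueller Hinton broth at 37° C were tested by 2-fold broth microdilution at 5×10^5 CFU/mL final. Compounds were dissolved in water and tested over a final range of 32 to 0.015 μg/mL.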
# A. baumannii GN_093 PmxR = settings: GN 093 PmxR
# Method in brief: as §1
# E. coli ATCC 25922 = settings: ATCC 25922
# Method in brief: as §1
# K. pneumoniae ATCC 13883 = settings: ATCC 13883
# Method in brief: as §1
# [1] = tested on: K. pneumoniae ATCC 700603, MDR; settings: ATCC 700603
# Method in brief: as §1
# [2] = tested on: K. pneumoniae ATCC BAA-2146, NDM-1 pos; settings: ATCC BAA-2146
# Method in brief: as §1
# [3] = tested on: K. pneumoniae GN_102 PmxR; settings: GN 102 PmxR
# Method in brief: as §1
# [4] = tested on: K. pneumoniae GN_106, PmxR; settings: GN 106, PmxR
# Method in brief: as §1
# P. aeruginosa ATCC 27853 = settings: ATCC 27853
# Method in brief: as §1
# [5] = tested on: P. aeruginosa GN_043, PmxR
# Method in brief: as §1
# [6] = tested on: P. aeruginosa GN_105, PmxR; settings: GN 105, PmxR
# Method in brief: as §1
# [7] = tested on: S. aureus ATCC 25923, MSSA; settings: ATCC 25923
# Method in brief: as §1
# in vitro = settings: human
# Method in brief: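 HK2 cells were seeded at 2000 per well in DMEM/F12 with 10% FBS and left to attach for 24 h at 37 °C, 5% CO2. They were then exposed for 24 h to 3-fold peptide dilutions starting from 600 μM solutions in quadruplicate. LDH release was read at 450 nm, and CC50 was fitted from dose-response curves.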
smiles,measurement,setting,value
"CCCCCCC[C@@H](O)CC(=O)N[C@H](CCN)C(=O)N[C@H]1CCNC(=O)[C@H](CC(C)C)NC(=O)[C@H](CCN)NC(=O)[C@H](CCN)NC(=O)[C@H](CC(C)C)NC(=O)[C@@H](C)NC(=O)[C@H](CCN)NC1=O [compound 5006, 3(R)OH-nC9CO-D-Dab-cyc[L-Dab-L-Dab-D-Ala-L-Leu-L-Dab-L-Dab-L-Leu]] ({Decanoyl(3R-OH)}-[dDab][Dab][Dab][dA]L[Dab][Dab]L; lactam 2-C)",MIC A. baumannii ATCC 19606,A. baumannii ATCC 19606,>32 µg/mL
same,MIC A. baumannii GN_093 PmxR,A. baumannii GN_093 PmxR,>32 µg/mL
same,MIC E. coli ATCC 25922,E. coli ATCC 25922,16 µg/mL
same,MIC K. pneumoniae ATCC 13883,K. pneumoniae ATCC 13883,32 µg/mL
same,"MIC K. pneumoniae ATCC 700603, MDR",[1],>32 µg/mL
same,"MIC K. pneumoniae ATCC BAA-2146, NDM-1 pos",[2],32 µg/mL
same,MIC K. pneumoniae GN_102 PmxR,[3],8 µg/mL
same,"MIC K. pneumoniae GN_106, PmxR",[4],32 µg/mL
same,MIC P. aeruginosa ATCC 27853,P. aeruginosa ATCC 27853,16 µg/mL
same,"MIC P. aeruginosa GN_043, PmxR","[5]; P. aeruginosa GN_043, PmxR",8 µg/mL
same,"MIC P. aeruginosa GN_105, PmxR",[6],32 µg/mL
same,"MIC S. aureus ATCC 25923, MSSA",[7],>32 µg/mL
same,CC50 at 24 h,in vitro,277 µM
"CCCCCCC[C@@H](O)CC(=O)N[C@H](Cc1cccnc1)C(=O)N[C@H]1CCNC(=O)[C@H]([C@@H](C)O)NC(=O)[C@H](CCN)NC(=O)[C@H](CCN)NC(=O)[C@H](CC(C)C)NC(=O)[C@@H](Cc2ccccc2)NC(=O)[C@H](CCN)NC1=O [compound 6398, 3(R)OH-nC9CO-D-3PyPhe-cyc[L-Dab-L-Dab-D-Phe-L-Leu-L-Dab-L-Dab-L-Thr]] ({Decanoyl(3R-OH)}-[d3Pal][Dab][Dab][dF]L[Dab][Dab]T; lactam 2-C)",MIC A. baumannii ATCC 19606,A. baumannii ATCC 19606,>64 µg/mL
same,MIC A. baumannii GN_093 PmxR,A. baumannii GN_093 PmxR,>32 µg/mL
same,MIC E. coli ATCC 25922,E. coli ATCC 25922,>64 µg/mL
same,MIC K. pneumoniae ATCC 13883,K. pneumoniae ATCC 13883,>64 µg/mL
same,"MIC K. pneumoniae ATCC 700603, MDR",[1],>64 µg/mL
same,"MIC K. pneumoniae ATCC BAA-2146, NDM-1 pos",[2],>64 µg/mL
same,MIC K. pneumoniae GN_102 PmxR,[3],32 µg/mL
same,"MIC K. pneumoniae GN_106, PmxR",[4],>32 µg/mL
same,MIC P. aeruginosa ATCC 27853,P. aeruginosa ATCC 27853,32 µg/mL
same,"MIC P. aeruginosa GN_043, PmxR","[5]; P. aeruginosa GN_043, PmxR",>32 µg/mL
same,"MIC P. aeruginosa GN_105, PmxR",[6],>32 µg/mL
same,"MIC S. aureus ATCC 25923, MSSA",[7],>32 µg/mL
same,CC50 at 24 h,in vitro,> 300 µM
"CCCCCCC[C@@H](O)CC(=O)N[C@H](CCN)C(=O)N[C@H]1CCNC(=O)[C@H](CO)NC(=O)[C@H](CCN)NC(=O)[C@H](CCN)NC(=O)[C@H](CC(C)C)NC(=O)[C@@H](Cc2ccccc2)NC(=O)[C@H](CCN)NC1=O [compound 6510, 3(R)OH-nC9CO-D-Dab-cyc[L-Dab-L-Dab-D-Phe-L-Leu-L-Dab-L-Dab-L-Ser]] ({Decanoyl(3R-OH)}-[dDab][Dab][Dab][dF]L[Dab][Dab]S; lactam 2-C)",MIC A. baumannii ATCC 19606,A. baumannii ATCC 19606,>64 µg/mL
same,MIC A. baumannii GN_093 PmxR,A. baumannii GN_093 PmxR,>32 µg/mL
same,MIC E. coli ATCC 25922,E. coli ATCC 25922,1 µg/mL
same,MIC K. pneumoniae ATCC 13883,K. pneumoniae ATCC 13883,64 µg/mL
same,"MIC K. pneumoniae ATCC 700603, MDR",[1],4 µg/mL
same,"MIC K. pneumoniae ATCC BAA-2146, NDM-1 pos",[2],4 µg/mL
same,MIC K. pneumoniae GN_102 PmxR,[3],>32 µg/mL
same,"MIC K. pneumoniae GN_106, PmxR",[4],>32 µg/mL
same,MIC P. aeruginosa ATCC 27853,P. aeruginosa ATCC 27853,1 µg/mL
same,"MIC P. aeruginosa GN_043, PmxR",[5]; polymyxin-resistant,1 µg/mL
same,"MIC P. aeruginosa GN_105, PmxR",[6],16 µg/mL
same,"MIC S. aureus ATCC 25923, MSSA",[7],>64 µg/mL
same,CC50 at 24 h,in vitro,149 µM
"CCCCCCC[C@@H](O)CC(=O)N[C@H](CCN)C(=O)N[C@H]1CCNC(=O)[C@H](Cc2ccccc2)NC(=O)[C@H](CN)NC(=O)[C@H](CCN)NC(=O)[C@H](CC(C)C)NC(=O)[C@@H](Cc2ccc(-c3ccccc3)cc2)NC(=O)[C@H](CCN)NC1=O [compound 5384, 3(R)OH-nC9CO-D-Dab-cyc[L-Dab-L-Dab-D-Bip-L-Leu-L-Dab-L-Dap-L-Phe]] ({Decanoyl(3R-OH)}-[dDab][Dab][Dab][dBip]L[Dab][Dap]F; lactam 2-C)",MIC A. baumannii ATCC 19606,A. baumannii ATCC 19606,8 µg/mL
same,MIC A. baumannii GN_093 PmxR,A. baumannii GN_093 PmxR,4 µg/mL
same,MIC E. coli ATCC 25922,E. coli ATCC 25922,4 µg/mL
same,MIC K. pneumoniae ATCC 13883,K. pneumoniae ATCC 13883,4 µg/mL
same,"MIC K. pneumoniae ATCC 700603, MDR",[1],8 µg/mL
same,"MIC K. pneumoniae ATCC BAA-2146, NDM-1 pos",[2],4 µg/mL
same,MIC K. pneumoniae GN_102 PmxR,[3],16 µg/mL
same,"MIC K. pneumoniae GN_106, PmxR",[4],8 µg/mL
same,MIC P. aeruginosa ATCC 27853,P. aeruginosa ATCC 27853,4 µg/mL
same,"MIC P. aeruginosa GN_043, PmxR",[5]; polymyxin-resistant,4 µg/mL
same,"MIC P. aeruginosa GN_105, PmxR",[6],4 µg/mL
same,"MIC S. aureus ATCC 25923, MSSA",[7],4 µg/mL
same,CC50 at 24 h,in vitro,24 µM
"CCCCCCC[C@@H](O)CC(=O)N[C@H](CCN)C(=O)N[C@H]1CCNC(=O)[C@H](CCC(=O)O)NC(=O)[C@H](CCN)NC(=O)[C@H](CCN)NC(=O)[C@H](CC(C)C)NC(=O)[C@@H](Cc2ccccc2)NC(=O)[C@H](CCN)NC1=O [compound 6512, 3(R)OH-nC9CO-D-Dab-cyc[L-Dab-L-Dab-D-Phe-L-Leu-L-Dab-L-Dab-L-Glu]] ({Decanoyl(3R-OH)}-[dDab][Dab][Dab][dF]L[Dab][Dab]E; lactam 2-C)",MIC A. baumannii ATCC 19606,A. baumannii ATCC 19606,>64 µg/mL
same,MIC A. baumannii GN_093 PmxR,A. baumannii GN_093 PmxR,>32 µg/mL
same,MIC E. coli ATCC 25922,E. coli ATCC 25922,>64 µg/mL
same,MIC K. pneumoniae ATCC 13883,K. pneumoniae ATCC 13883,>64 µg/mL
same,"MIC K. pneumoniae ATCC 700603, MDR",[1],64 µg/mL
same,"MIC K. pneumoniae ATCC BAA-2146, NDM-1 pos",[2],>64 µg/mL
same,MIC K. pneumoniae GN_102 PmxR,[3],>32 µg/mL
same,"MIC K. pneumoniae GN_106, PmxR",[4],>32 µg/mL
same,MIC P. aeruginosa ATCC 27853,P. aeruginosa ATCC 27853,8 µg/mL
same,"MIC P. aeruginosa GN_043, PmxR",[5]; polymyxin-resistant,>32 µg/mL
same,"MIC P. aeruginosa GN_105, PmxR",[6],>32 µg/mL
same,"MIC S. aureus ATCC 25923, MSSA",[7],>32 µg/mL
same,CC50 at 24 h,in vitro,> 300 µM
"CCCCCCC[C@@H](O)CC(=O)N[C@H](CCN)C(=O)N[C@H]1CCNC(=O)[C@H](CC(C)C)NC(=O)[C@H](CCN)NC(=O)[C@H](CCN)NC(=O)[C@H](C)NC(=O)[C@@H](Cc2ccccc2)NC(=O)[C@H](CCN)NC1=O [compound 4946, 3(R)OH-nC9CO-D-Dab-cyc[L-Dab-L-Dab-D-Phe-L-Ala-L-Dab-L-Dab-L-Leu]] ({Decanoyl(3R-OH)}-[dDab][Dab][Dab][dF]A[Dab][Dab]L; lactam 2-C)",MIC A. baumannii ATCC 19606,A. baumannii ATCC 19606,16 µg/mL
same,MIC A. baumannii GN_093 PmxR,A. baumannii GN_093 PmxR,16 µg/mL
same,MIC E. coli ATCC 25922,E. coli ATCC 25922,16 µg/mL
same,MIC K. pneumoniae ATCC 13883,K. pneumoniae ATCC 13883,8 µg/mL
same,"MIC K. pneumoniae ATCC 700603, MDR",[1],8 µg/mL
same,"MIC K. pneumoniae ATCC BAA-2146, NDM-1 pos",[2],8 µg/mL
same,MIC K. pneumoniae GN_102 PmxR,[3],4 µg/mL
same,"MIC K. pneumoniae GN_106, PmxR",[4],16 µg/mL
same,MIC P. aeruginosa ATCC 27853,P. aeruginosa ATCC 27853,1 µg/mL
same,"MIC P. aeruginosa GN_043, PmxR","[5]; P. aeruginosa GN_043, PmxR",0.5 µg/mL
same,"MIC P. aeruginosa GN_105, PmxR",[6],16 µg/mL
same,"MIC S. aureus ATCC 25923, MSSA",[7],>32 µg/mL
same,CC50 at 24 h,in vitro,107 µM
"CCCCCCC[C@@H](O)CC(=O)N[C@H](CCN)C(=O)N[C@H]1CCNC(=O)[C@H]([C@@H](C)O)NC(=O)[C@H](CCNC(=O)[C@@H](N)CCCNC(=N)N)NC(=O)[C@H](CCN)NC(=O)[C@H](CC(C)C)NC(=O)[C@@H](Cc2ccccc2)NC(=O)[C@H](CCN)NC1=O [compound 5603, 3(R)OH-nC9CO-D-Dab-cyc[L-Dab-L-Dab-D-Phe-L-Leu-L-Dab-L-Dab(L-Arg)-L-Thr]] ({Decanoyl(3R-OH)}-[dDab][Dab][Dab][dF]L[Dab][Dab](Arg)T; lactam 2-C)",MIC A. baumannii ATCC 19606,A. baumannii ATCC 19606,>32 µg/mL
same,MIC A. baumannii GN_093 PmxR,A. baumannii GN_093 PmxR,>32 µg/mL
same,MIC E. coli ATCC 25922,E. coli ATCC 25922,32 µg/mL
same,MIC K. pneumoniae ATCC 13883,K. pneumoniae ATCC 13883,>32 µg/mL
same,"MIC K. pneumoniae ATCC 700603, MDR",[1],16 µg/mL
same,"MIC K. pneumoniae ATCC BAA-2146, NDM-1 pos",[2],>32 µg/mL
same,MIC K. pneumoniae GN_102 PmxR,[3],>32 µg/mL
same,"MIC K. pneumoniae GN_106, PmxR",[4],>32 µg/mL
same,MIC P. aeruginosa ATCC 27853,P. aeruginosa ATCC 27853,8 µg/mL
same,"MIC P. aeruginosa GN_043, PmxR","[5]; P. aeruginosa GN_043, PmxR",32 µg/mL
same,"MIC P. aeruginosa GN_105, PmxR",[6],32 µg/mL
same,"MIC S. aureus ATCC 25923, MSSA",[7],>32 µg/mL
same,CC50 at 24 h,in vitro,103 µM
